The values below come from the OPERA property sets (Mansouri et al. 2018).

On to `CC1(C)OC(c2ccco2)CN1C(=O)C(Cl)Cl` (stereo unspecified), for which the log10 vapour pressure (mmHg) is -7.31 and the melting point is 97 °C.

Compound `C/C=C/C/C=C/CCC(=O)[C@H]1O[C@H]1C(N)=O` registered a melting point of 93.5 °C.

`N#CN` gave a log10 vapour pressure (mmHg) of -2.43 and a melting point of 44 °C.

In the case of `CCCCC(C)(C)CC`, the boiling point turned out to be 137 °C.

The compound `CCCCCCCCCCCCCCCCCC(=O)OCCO` displayed a melting point of 60.5 °C.

For `O=c1[nH]sc2ccccc12`, the ready biodegradability result was “not readily biodegradable”.

As for `CC1=C(C)S(=O)(=O)CCS1(=O)=O`, the log10 Koc (L/kg) came out at 0.48, the log10 vapour pressure (mmHg) was -6.42 and the melting point worked out at 165 °C.

Regarding `CN1C(=O)C=CC1=O`, the melting point is 95 °C.

`C(=N\C(/N=C/c1ccco1)c1ccco1)/c1ccco1` had a melting point of 117 °C.

`CCCCS/C(=N\c1cccnc1)SCc1ccc(C(C)(C)C)cc1` gave a melting point of 32 °C.

With `CC(C)(C)c1cc(-n2nc3ccccc3n2)c(O)c(C(C)(C)C)c1`, the ready biodegradability result is reported as “not readily biodegradable”.

On to `CCOC(=O)C(C(=O)OCC)C(=O)OCC`, for which the boiling point was 253 °C and the melting point was determined as 29 °C.

Turning to `NCc1ccccc1`, the boiling point came out at 185 °C, the log10 vapour pressure (mmHg) was -0.185 and the ready biodegradability entry is given as “readily biodegradable”.

`CC(C)C1=CC2C(C)CC1C1C(=O)OC(=O)C21` (stereo unspecified): the ready biodegradability result was “not readily biodegradable”.

In the case of `C=C(C)C(C)CC` (stereo unspecified), the boiling point worked out at 84.3 °C, the log10 vapour pressure (mmHg) stood at 1.91 and the melting point is -134 °C.

`CN(CC(=O)O)N=O` yielded a melting point of 66.5 °C.

`CCOc1ccc([N+](=O)[O-])cc1` showed a boiling point of 283 °C and a melting point of 60 °C.

Regarding `O=C=Nc1cccc2c(N=C=O)cccc12`, the boiling point is 330 °C, the log10 vapour pressure (mmHg) is -4.47 and the melting point stood at 130 °C.

`CC(CCO)CCCC(C)(C)O` (stereo unspecified) registered a boiling point of 265 °C.

Compound `Oc1cccc2sccc12` showed a melting point of 79.8 °C.

In the case of `CC(C)Sc1ccccc1`, the boiling point is 208 °C.

As to `O=C1CSC2(CCN(CCCN3c4ccccc4Sc4ccc(Cl)cc43)CC2)N1`, the melting point came out at 155 °C.

The compound `CCCCc1ccc(O)cc1` came in with a boiling point of 248 °C, a log10 vapour pressure (mmHg) of -2.65 and a melting point of 22 °C.

`CCCCCCCCCOC(=O)c1ccc(N)cc1` returned a melting point of 69 °C.

With `CCC(=O)c1cccc(OC)c1`, the boiling point worked out at 259 °C.

The compound `O=c1[nH]cc(N(CCCl)CCCl)c(=O)[nH]1` showed a log10 Koc (L/kg) of 1.46.

Take `C=CC(O)CC` (stereo unspecified): the boiling point amounted to 115 °C.

Regarding `Cc1ccc(N)c(Cl)c1`, the boiling point is 220 °C and the melting point amounted to 7 °C.

`CNC(=O)O/N=C/C(C)(C)S(C)=O` (stereo unspecified) yielded a log10 Koc (L/kg) of 0.56 and a log10 vapour pressure (mmHg) of -4.

For `CC(Cl)[N+](=O)[O-]` (stereo unspecified), the boiling point amounted to 124 °C.

With `Nc1ccc2ncsc2c1`, the melting point turned out to be 87 °C.

`O=C(N/N=C/C=C/c1ccc([N+](=O)[O-])o1)c1ccc([N+](=O)[O-])s1`: the melting point was found to be 236 °C.

Take `CCCCCCCCCCCC(=O)c1ccccc1`: the melting point worked out at 47 °C.

With `Nc1nc(N)nc(NC2CC2)n1`, the log10 Koc (L/kg) amounted to 2.3, the log10 vapour pressure (mmHg) was -8.47 and the melting point came to 225 °C.

`CCCC(C)O` (stereo unspecified): the boiling point was 119 °C, the log10 Henry constant (atm·m³/mol) is -4.83, the log10 vapour pressure (mmHg) came to 0.786 and the melting point is -73 °C. Besides, the ready biodegradability entry is reported as “readily biodegradable”.

For the compound `CN(C)S(=O)(=O)N(SC(F)(Cl)Cl)c1ccccc1`, the log10 vapour pressure (mmHg) is -6.95, the melting point is 106 °C and the ready biodegradability entry is given as “not readily biodegradable”.

As to `CCC(C)CC(C)C` (stereo unspecified), the boiling point stood at 110 °C, the log10 biodegradation half-life (days) is 0.845 and the log10 vapour pressure (mmHg) was 1.48.

Turning to `Cc1cc2ccccc2n1C`, the melting point came out at 56.5 °C.

Turning to `CCCC1CCCCC1C` (stereo unspecified), the boiling point turned out to be 176 °C.

With `COc1cc(C)nc(-n2nc(C)cc2OC)n1`, the melting point is 91 °C.

`CCCCCCCCCC(=O)OC(=O)CCCCCCCCC`: the melting point amounted to 24.7 °C.

In turn, `CC(C)(C)NCC(O)COc1ccccc1C#N` (stereo unspecified) showed a melting point of 164 °C.

In the case of `Oc1ccc(O)c(Cl)c1`, the boiling point stood at 263 °C and the melting point was 108 °C.

Take `CC1(O)CCCCC1`: the boiling point was 155 °C, the log10 vapour pressure (mmHg) came to 0.0531 and the melting point is 25 °C.

As to `Clc1ccc(Cl)c(-c2cc(Cl)ccc2Cl)c1`, the log10 Henry constant (atm·m³/mol) was -3.7, the log10 Koa came to 8.47, the log10 Koc (L/kg) was 5.12 and the ready biodegradability entry is “not readily biodegradable”.

`CCCCCCCCCCCCCCCCCCCCCCCCCC(=O)O` yielded a melting point of 88.5 °C.

As to `CC(C)CCOC(=O)c1ccccc1O`, the boiling point is 278 °C and the ready biodegradability result is given as “readily biodegradable”.

Take `N=C(Nc1ccccc1)Nc1ccccc1`: the melting point is 150 °C and the ready biodegradability result is on record as “not readily biodegradable”.

For the compound `COc1ccc(Cl)c(N)c1`, the melting point came to 27 °C.

On to `Clc1ccc(Oc2ccccc2)c(Cl)c1`, for which the log10 vapour pressure (mmHg) was -3.04.

Compound `CCCCCCCCC(=O)OCC` came in with a boiling point of 227 °C and a melting point of -36.7 °C.

As to `CCS(=O)(=O)CCO`, the melting point was 46 °C.

As to `FC(F)(F)CCBr`, the boiling point came out at 63.5 °C.

In turn, `CC[Si](CC)(CC)O[Si](CC)(CC)CC` yielded a boiling point of 233 °C.

Compound `CCCCCCCCCCCCOc1ccc(C(=O)O)cc1` yielded a melting point of 95 °C.

Consider `CCCCCCCCC=CCCCCCCCC(=O)Nc1ccccc1`, for which the melting point was determined as 41 °C.

The melting point is the temperature, or range, at which the solid turns liquid. By boiling point is commonly meant the temperature of boiling at a given pressure.
